This note sets out measurements from the RepoRT retention time repository (doi:10.3390/metabo9050085).

Molecules are shown by their SMILES.

This series in a line: Phenomenex Kinetex C18, 150 × 2.1 mm, 1.7 µm, 30 °C, 0.3 mL/min; A: water + 0.1% formic acid; B: acetonitrile + 0.1% formic acid; gradient (min/%B) 0/2 14/100 17/100 17/2 25/2. Conditions: stereoisomer not certain.
On to `CC(=O)C1CCC2C3CC=C4CC(O)CCC4(C)C3CCC12C` (stereo not given), for which the LC retention time is 13 min.

Regarding `CC(=O)C1CCC2C3=CC=C4CC(O)CCC4(C)C3CCC12C` (stereo not given), the LC retention time is 11.6 min.

Consider `CC12CCC(=O)CC1CCC1C2CCC2(C)C(C(=O)CO)CCC12` (stereo not given), for which the LC retention time came to 11.6 min.

Turning to `CC12CCC(O)CC1CCC1C2C2CC3(C(O)O2)C(C(=O)CO)CCC13` (stereo not given), the LC retention time came to 7.18 min.

Take `CC12CCC3C4=C(CCC3C1CCC2O)C(=O)C(=O)C=C4` (stereo not given): the LC retention time is 7.81 min.

Regarding `CC12CCC(=O)C=C1CCC1C2CCC2(C)C(C(=O)CO)CCC12` (stereo not given), the LC retention time came to 10.5 min.

Turning to `CC12CCC(=O)C=C1CCC1C2C(O)CC2(C=O)C1CCC2(O)C(=O)CO` (stereo not given), the LC retention time is 6.76 min.

For the molecule `CC12CCC(=O)C=C1CCC1C2C(O)CC2(C)C(C(=O)CO)CCC12` (stereo not given), the LC retention time was 8.81 min.

Turning to `CC(CCC(=O)O)C1CCC2C3CC=C4CC(O)CCC4(C)C3CCC12C` (stereo not given), the LC retention time worked out at 15.8 min.

For `CC12CCC(O)CC1=CCC1C2C(O)CC2(C)C1CCC2(O)C(=O)CO` (stereo not given), the LC retention time is 8.15 min.

`CC12CCC3C(CCC4=CC(=O)CCC43C)C1CC(O)C2=O` (stereo not given): the LC retention time worked out at 8.39 min.

Turning to `CC12CCC3c4ccc(OS(=O)(=O)O)cc4CCC3C1CCC2=O` (stereo not given), the LC retention time was 8.65 min.

For the molecule `CC12CCC3C(CCC4=CC(=O)CCC43C(=O)O)C1CCC2C(=O)CO` (stereo not given), the LC retention time stood at 8.03 min.

As to `CC12CCC(=O)C=C1CCC1C2C(O)CC2(C)C(C(=O)C(=O)O)CCC12` (stereo not given), the LC retention time stood at 8.1 min.

For the molecule `CC12CCC3C(CCC4=CC(=O)CCC43C=O)C1CCC2O` (stereo not given), the LC retention time was 8.59 min.

On to `CC(=O)C1CCC2C3C(O)C=C4CC(O)CCC4(C)C3CCC12C` (stereo not given), for which the LC retention time is 8.93 min.

For the molecule `CC12CCC3c4ccc(O)c(O)c4CCC3C1CCC2O` (stereo not given), the LC retention time was found to be 7.61 min.

In the case of `CC12CCC(=O)C=C1CCC1C2CCC2(C)C(O)CC(O)C12` (stereo not given), the LC retention time turned out to be 6.97 min.

As for `CC(=O)C1(O)CCC2C3CC=C4CC(O)CCC4(C)C3CCC21C` (stereo not given), the LC retention time turned out to be 10.7 min.

Regarding `COc1cc2c(cc1OC)C1CCC3(C)C(O)CCC3C1CC2` (stereo not given), the LC retention time worked out at 11.5 min.

For `CC12CCC3c4cc(O)c(O)cc4CCC3C1CCC2=O` (stereo not given), the LC retention time was 8.07 min.

With `CC12CC(=O)C3C(CCC4CC(O)CCC43C)C1CCC2C(=O)CO` (stereo not given), the LC retention time came to 9.06 min.

For the molecule `CC12CCC(O)CC1CCC1C2C(O)CC2(C=O)C(C(=O)CO)CCC12` (stereo not given), the LC retention time is 7.76 min.

As to `CC12CCC(O)CC1=CCC1C2CCC2(C)C(O)CCC12` (stereo not given), the LC retention time stood at 10.8 min.

In the case of `CC12CCCC1C1CC(O)C3(O)CC(O)CCC3(C)C1CC2` (stereo not given), the LC retention time worked out at 10.5 min.

`CC(=O)C1C(O)CC2C3CC=C4CC(O)CCC4(C)C3CCC21C` (stereo not given): the LC retention time was 9.87 min.

Regarding `CC12CCC3c4cc(O)c(O)cc4CCC3C1CCC2O` (stereo not given), the LC retention time came to 7.86 min.

For `CC12CCC(=O)C=C1CCC1C2C(O)CC2(C)C1CCC2(O)C(=O)CO` (stereo not given), the LC retention time amounted to 7.61 min.

On to `CC12CCC3C(CCC4=CC(=O)CCC43C=O)C1CCC2C(=O)CO` (stereo not given), for which the LC retention time turned out to be 8.89 min.

As to `CC12C=CCC1C1CCC3CC(O)CCC3(C)C1CC2` (stereo not given), the LC retention time worked out at 11.9 min.
